Assay results reported in patent publication US20170209547A1, “N[…] USE IN […] AND ANXIETY IN PETS” (DOMES PHARMA, priority 2016, published 2017).

Test system: male Wistar Han rats
Experiment: EDC test (anxiety test with electric probe burying), global anxiety score
Type: in vivo, rat
Settings: Diazepam 3 mg/kg p.o. 60 min before the test
Description: Forty male Wistar Han rats (Crl:WI(Han), Charles River Laboratories, L'Arbresle, France), weighing from 250 to 275 g were used. Upon receipt, the rats were marked and split into groups of 3 or 4 animals in polycarbonate cages (Eurostandard type IIIH, 425×266×185 mm, Tecniplast, Lyon, France). The animals were housed in a climate-controlled animal house, at a temperature of […] and relative humidity of 50±20%. The rats had food (Teklad Global 2016, Harlan, Ganat, France) and drink ad libitum and were held in a day-night cycle inverted by 12 hours (day from 20:00 to 08:00). […]
The experimental device was placed in a room lit with a low intensity red light. A video camera connected to a digital recorder saved all behavioral sequences so that behavior of interest could be measured later. […]
The electric probe was inserted into the cage before the start of the test. […] After the electric shock, the rat's behavior was recorded for 5 min. […]
The following behaviors were quantified from video recordings made during the tests: • duration probe was buried; • number of stretches in the direction of the probe; • number of approaches to the probe; • number of flights from the probe. […]

## CN1C(=O)CN=C(c2ccccc2)c2cc(Cl)ccc21 [Diazepam]
  Global anxiety score vs. vehicle group (Mann-Whitney test): significantly lower
N = 9, Vehicle median 111
  Global anxiety score, Median: 41
